From patent US11912787B2, “Peptide for skin aging prevention and wrinkle reduction, and composition comprising same” (DERMAFIRM, INC., priority 2019, dated 2024)
Like-named read-outs stand apart in the source and are kept apart here. Residues, ends and D or L forms follow the SMILES beside them. *: point of attachment. Palmitoyl = CCCCCCCCCCCCCCCC(=O)*

Tested on: Fibroblasts
Assay: MTT cytotoxicity assay
Type: cell-based
Method: In order to examine the cytotoxicity of the novel peptides (GHK-R4 (SEQ ID NO.: 3) and Pal-GHK-R4 (SEQ ID NO.: 4)) according to the Examples of the present invention, MTT assay was performed. As a control, GHK-acetate was used. Fibroblasts were treated with various concentrations of each of the control and the novel peptides, and after 24 hours, treated with MTT reagent. Next, the absorbance was measured, and the viability of the cells was calculated based on the absorbance.

H-GHKRRRR-OH [GHK-R4, H-GlyHisLys-ArgArgArgArg-OH]
IC30 (cell viability, MTT) (fibroblasts, 24 hours treatment): ~5320 µM

CCCCCCCCCCCCCCCC(=O)NCC(=O)N[C@@H](Cc1c[nH]cn1)C(=O)N[C@@H](CCCCN)C(=O)N[C@@H](CCCNC(=N)N)C(=O)N[C@@H](CCCNC(=N)N)C(=O)N[C@@H](CCCNC(=N)N)C(=O)N[C@@H](CCCNC(=N)N)C(=O)O [Pal-GHK-R4, Pal-GlyHisLys-ArgArgArgArg-OH] (Palmitoyl-GHKRRRR-OH)
IC30 (cell viability, MTT): ~8.70 µM

NCCCC[C@H](NC(=O)[C@H](Cc1cnc[nH]1)NC(=O)CN)C(=O)O [GHK-acetate, glycine-histidyl-lysine tripeptide, reference compound] (H-Gly-His-Lys-OH)
IC30 (cell viability, MTT): about 31.71 mM
